Data on 14 molecules can be found in US9359589B2, “Use of at least one chelating agent introduced into the culture medium of magnetotactic bacteria in order to stimulate the growth thereof” (UNIVERSITE PIERRE ET MARIE CURIE (PARIS 6), priority 2011, dated 2016).

Common to all, as to assay type: cell-based
In test [1] the test system is Magnetospirillum magneticum. Nature of the test: Growth over time of magnetotactic bacteria in 10 ml tubes with chelating agent (absorbance, O.D. at 565 nm, D2-D9). Particulars: for effect on the growth of the magnetotactic bacteria (absorbance compared with cultures without the agent): 0.4-400 μM, D2 to D9, 10 ml tubes; for multiplication of the bacteria during the first 4 days: first 4 days of growth. The procedure:
Cultures of Magnetospirillum magneticum were prepared as described in example 1. The bacteria were cultured in 10 milliliter tubes. A volume of 100 microliters of culture medium was inoculated, at time “D0” (Day 0), with 0.1×10^6 bacterial cells. The cultures in suspension were placed at ambient temperature (approximately 25° C.) and the growth of the bacteria over time was monitored by measuring O.D. at the wavelength of 565 nanometers.
The following series of culture samples were prepared: • samples of control culture, comprising the bacterial cells in the culture medium free of chelating agent; • a series of culture samples containing the chelating agent rhodamine B, at increasing concentrations of 0.4 μM, 4 μM, 40 μm and 400 μM; • a series of culture samples containing the chelating agent ascorbic acid, at increasing concentrations of 0.4 μM, 4 μM, 40 μM and 400 μM; • a series of culture samples containing the chelating agent erythrosine, at increasing concentrations of 0.4 μM, 40 μM and 400 μM; • a series of culture samples containing the chelating agent folic acid, at increasing concentrations of 0.4 μM, 4 μM, 40 μM and 400 μM;
The bacteria were cultured for 12 days in a tube and the absorbance over the whole of the spectrum ranging from 400 to 700 nanometers was measured, respectively, (i) on the second day (D2) after inoculation, (ii) on the third day (D3) after inoculation, (iii) on the fourth day (D4) after inoculation, (iv) on the seventh day (D7) after inoculation, (v) on the eighth day (D8) after inoculation and (vi) on the ninth day (D9) after inoculation. The magnetic moments of various suspensions of magnetotactic bacteria deposited on blotting paper were measured on days D7, D8 and D9.

Test [2] concerns Magnetotactic bacteria of the Magnetospirillum magneticum species, strain AMB-1. Nature of the test: Growth of magnetotactic bacteria after 7 days of culture in 1 liter of medium with chelating agent (absorption at 565 nm). Particulars: for absorption measured at 565 nm of bacterial suspension compared with bacteria cultured in the absence of chelating agent: 1 liter. The procedure: (§1) Magnetotactic bacteria of the Magnetospirillum magneticum species, strain AMB-1, available from ATCC under the reference ATCC No. 700274, were used.
The cells were placed in culture under microanaerobic conditions, i.e. in a culture medium which has not been degassed but which is closed and has no contact with oxygen. The bacteria were cultured at laboratory temperature (approximately 25° C.) in a liquid culture in a slighly modified MSGM medium (medium ATCC 1653), the makeup of which is described hereinafter.
For a volume of one liter, the culture medium contains 0.68 g of monobasic potassium phosphate, 0.85 g of sodium succinate, 0.57 g of sodium tartrate, 0.083 g of sodium acetate, 225 μl of resazurin at 0.2%, 0.17 g of sodium nitrate, 0.04 g of L-ascorbic acid, 2 ml of a 10 mM iron quinate solution, 10 ml of a Woolf vitamin solution and 5 ml of a Woolf mineral solution.
(§2) In order to prepare the culture medium containing the various iron-chelating agents, said agents were introduced at various concentrations into the culture medium described above (section 1.2).
(§3) In this example, the magnetotactic bacteria were cultured in the presence of various chelating agents and harvested after 7 days. The absorption and the iron oxide concentration of the magnetosome chains extracted from the bacteria were then measured.

The test system is the same in test [3]. Kind of test: Magnetosome production after 7 days of culture (iron oxide concentration of extracted magnetosome chains, absorption at 480 nm). The procedure:
as §1, §2
The cells were harvested during the stationary phase.
The cells are harvested during the stationary phase by centrifugation at 4000 g for 20 minutes. The supernatant is removed and the cells are resuspended in 3 ml of deionized water.
To extract the magnetosome chains, 1 ml of cell suspension obtained as described above is again centrifuged and then resuspended in a 10 mM Tris-HCl buffer at pH 7.4, and then the cell suspension is subjected to a sonication step for 120 minutes at a power of 30 W, in order to lyze the cells and to release the magnetosome chains. Sonication periods of 60 and 180 minutes can also be used. For a sonication period of less than 60 minutes, the bacteria are not all lyzed. For a sonication period of greater than 180 minutes, the beginnings of aggregation are observed owing to the presence of individual magnetosomes which are aggregated.
After sonication, the magnetosome chain suspension is separated by placing a powerful neodynium magnet (0.1-1 T) in proximity to the tube, and the magnetic material is then recovered in the form of a pellet.
The maghemite concentration of a suspension of magnetosome chains extracted from magnetotactic bacteria was measured using the measurement of the absorption at 480 nm of this suspension. The method of calibration between the value of the absorption and the amount of maghemite is described elsewhere (PCT/EP2010/067765). These measurements were carried out in order to determine the amount of magnetosome chains produced by the magnetotactic bacteria after a given growth time. The amounts of magnetosome chains produced in the absence and in the presence of the chelating agents were then compared.
as §3

For the molecule `CCN(CC)c1ccc2c(-c3ccccc3C(=O)O)c3ccc(=[N+](CC)CC)cc-3oc2c1` [rhodamine B], in test [1] (400 μM), the “effect on cell growth at high concentration” value is listed as “rather unfavorable”. Also, the “effect on the growth of the magnetotactic bacteria (absorbance compared with cultures without the agent)” value in test [1] is recorded as “stimulates the growth”. Moreover, the “growth curves (fitted absorption, first 7 days) relative to bacteria cultured in the absence of the agent” value in test [1] (all concentrations except 400 μM) was “above”. Also, the “period of culture during which the effects are greatest” value in test [1] (exponential growth phase) is listed as “first six days”. Moreover, the “absorption measured at 565 nm of bacterial suspension compared with bacteria cultured in the absence of chelating agent” value in test [2] (chelating agent 0.4 μM), in test [2] (chelating agent 4 μM) and in test [2] (chelating agent 40 μM) was “greater” throughout. The “magnetosome production (iron oxide concentration) compared with the control bacteria” value in test [3] (chelating agent 0.4 μM), in test [3] (chelating agent 4 μM) and in test [3] (chelating agent 40 μM) was “increased” each time.

As to `O=S(=O)(O)CCCNC1CCCCC1` [3-[cyclohexylamino]-1-propanesulfonic acid], the “absorption measured at 565 nm of bacterial suspension compared with bacteria cultured in the absence of chelating agent” value in test [2] (chelating agent 0.4 μM), in test [2] (chelating agent 4 μM) and in test [2] (chelating agent 40 μM) was “greater” each time. Further, the “magnetosome production (iron oxide concentration) compared with the control bacteria” value in test [3] (chelating agent 0.4 μM), in test [3] (chelating agent 4 μM) and in test [3] (chelating agent 40 μM) was “increased” throughout.

With `O=S(=O)(O)CCCN1CCOCC1` [3-(N-morpholino)propanesulfonic acid], the “absorption measured at 565 nm of bacterial suspension compared with bacteria cultured in the absence of chelating agent” value in test [2] (chelating agent 4 μM) and in test [2] (chelating agent 40 μM) was “greater” throughout. The “magnetosome production (iron oxide concentration) compared with the control bacteria” value in test [3] (chelating agent 0.4 μM) is given as “increased”.

With `O=C(O)CN(CCN(CC(=O)O)CC(=O)O)CC(=O)O` [EDTA, ethylenediaminetetraacetic acid], the “absorption measured at 565 nm of bacterial suspension compared with bacteria cultured in the absence of chelating agent” value in test [2] (chelating agent 0.4 μM), in test [2] (chelating agent 4 μM) and in test [2] (chelating agent 40 μM) was “greater” throughout. The “magnetosome production (iron oxide concentration) compared with the control bacteria” value in test [3] (chelating agent 0.4 μM) and in test [3] (chelating agent 4 μM) was “increased” in each case.

`NC(=O)c1cccnc1` [nicotinamide]: in test [2] (chelating agent 40 μM), the “absorption relative to that of the control bacteria” value is 1.5-2 times and the “absorption measured at 565 nm of bacterial suspension compared with bacteria cultured in the absence of chelating agent” value is “greater”.

With `Nc1ccccc1C(=O)O` [anthranilic acid], the “absorption measured at 565 nm of bacterial suspension compared with bacteria cultured in the absence of chelating agent” value in test [2] (chelating agent 0.4 μM) is listed as “greater”. In addition, the “magnetosome production (iron oxide concentration) compared with the control bacteria” value in test [3] (chelating agent 0.4 μM) is listed as “increased”.

For `NCCCCCC(O)(P(=O)(O)O)P(=O)(O)O` [neridronate, reference compound], the “absorption measured at 565 nm of bacterial suspension compared with bacteria cultured in the absence of chelating agent” value in test [2] (chelating agent 40 μM) was “greater”.

Turning to dextran, in test [2] (chelating agent 40 μM), the “absorption measured at 565 nm of bacterial suspension compared with bacteria cultured in the absence of chelating agent” value is “greater”. Also, in test [3] (chelating agent 40 μM), the “magnetosome production (iron oxide concentration) compared with the control bacteria” value is “increased”.

In the case of hemoglobin, the “absorption measured at 565 nm of bacterial suspension compared with bacteria cultured in the absence of chelating agent” value in test [2] (chelating agent 0.4 μM), in test [2] (chelating agent 4 μM) and in test [2] (chelating agent 40 μM) was “greater” each time. Also, the “factor of increase of iron oxide production” value in test [3] (0.4 μM in the culture medium) and in test [3] (4 μM in the culture medium) was 7-8 throughout. In addition, the “magnetosome production (iron oxide concentration) compared with the control bacteria” value in test [3] (chelating agent 0.4 μM), in test [3] (chelating agent 4 μM) and in test [3] (chelating agent 40 μM) was “increased” each time.

In the case of `O=C(O)CN(CC(=O)O)Cc1cc2c(cc1O)Oc1cc(O)c(CN(CC(=O)O)CC(=O)O)cc1C21OC(=O)c2ccccc21` [calcein], the “absorption measured at 565 nm of bacterial suspension compared with bacteria cultured in the absence of chelating agent” value in test [2] (chelating agent 4 μM) and in test [2] (chelating agent 40 μM) was “greater” throughout. The “magnetosome production (iron oxide concentration) compared with the control bacteria” value in test [3] (chelating agent 4 μM) and in test [3] (chelating agent 40 μM) was “increased” in each case.

As for `Nc1nc2ncc(CNc3ccc(C(=O)N[C@@H](CCC(=O)O)C(=O)O)cc3)nc2c(=O)[nH]1` [folic acid], the “multiplication of the bacteria during the first 4 days” value in test [1] (0.4 μM) and in test [1] (40 μM) was “multiply in greater number” each time. Besides, in test [1] (4 μM, first two days of growth), the “growth of the bacteria during the first two days” value is recorded as “grow more rapidly”. In test [1], the “effect on the growth of the magnetotactic bacteria (absorbance compared with cultures without the agent)” value was “stimulates the growth”.

Consider `O=C(O)CC(O)(CC(=O)O)C(=O)O` [citric acid], for which the “absorption measured at 565 nm of bacterial suspension compared with bacteria cultured in the absence of chelating agent” value in test [2] (chelating agent 4 μM) and in test [2] (chelating agent 40 μM) was “greater” throughout. Moreover, the “magnetosome production (iron oxide concentration) compared with the control bacteria” value in test [3] (chelating agent 4 μM) and in test [3] (chelating agent 40 μM) was “increased” in each case.

For `O=C1OC2(c3ccccc31)c1cc(I)c(O)c(I)c1Oc1c2cc(I)c(O)c1I` [erythrosine], the “absorption compared with control bacteria on day D4” value in test [1] (0.4 μM) and in test [1] (4 μM) was “greater” throughout. Also, the “effect on the growth of the magnetotactic bacteria (absorbance compared with cultures without the agent)” value in test [1] was “stimulates the growth of the magnetotactic bacteria less than rhodamine B or ascorbic acid”. In addition, in test [1] (the other days of culture and the other concentrations), the “absorption compared with control bacteria” value is given as “either similar to or lower”.

`NCCCC(O)(P(=O)(O)O)P(=O)(O)O` [alendronate, reference compound]: the “magnetosome production (iron oxide concentration) compared with the control bacteria” value in test [3] (chelating agent 0.4 μM), in test [3] (chelating agent 4 μM) and in test [3] (chelating agent 40 μM) was “increased” throughout.
